# In paper PMC3479967 (Evidence-based Complementary and Alternative Medicine : eCAM, 2012):
# What was measured:
# UGT2B4 = biological target: T1, UGT2B4 (Homo sapiens, UniProt P06133); assay: Inhibition of recombinant UGT2B4 activity (4-MU glucuronidation)
# T1 sequence (P06133 24-528): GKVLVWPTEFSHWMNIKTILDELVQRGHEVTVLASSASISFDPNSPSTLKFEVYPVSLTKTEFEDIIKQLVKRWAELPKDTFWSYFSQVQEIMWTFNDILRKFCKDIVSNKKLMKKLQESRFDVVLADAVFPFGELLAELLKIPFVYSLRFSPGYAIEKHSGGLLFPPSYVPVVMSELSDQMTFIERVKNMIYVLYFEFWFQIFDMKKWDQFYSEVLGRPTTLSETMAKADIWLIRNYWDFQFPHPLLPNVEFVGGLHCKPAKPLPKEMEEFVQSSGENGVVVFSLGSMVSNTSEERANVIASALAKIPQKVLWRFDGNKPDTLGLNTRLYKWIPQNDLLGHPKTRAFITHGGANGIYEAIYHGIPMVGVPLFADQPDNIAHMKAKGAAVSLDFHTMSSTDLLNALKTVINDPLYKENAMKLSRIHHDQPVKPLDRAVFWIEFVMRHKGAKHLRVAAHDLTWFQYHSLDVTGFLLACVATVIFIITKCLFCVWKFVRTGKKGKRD
# Protocol: A panel of recombinant human UGT supersomes (UGT1A1, UGT1A3, UGT1A4, UGT1A6, UGT1A7, UGT1A8, UGT1A9, UGT1A10, UGT2B4, UGT2B7, UGT2B15, and UGT2B17) expressed in baculovirus-infected insect cells were purchased from BD Gentest Corp. (Woburn, MA, USA).
# 4-MU, a nonselective substrate of UGTs, was used as probe substrate for all UGTs except UGT1A4. Incubations with each individual enzyme were conducted using conditions previously described. There was a 5 min preincubation step at 37°C before the reaction was started by addition of UDPGA. The incubation mixtures were then centrifuged at 20,500 ×g for 15 min to obtain the supernatant. Aliquots (20 μL) were then analyzed by HPLC. The HPLC system (SHIMADZU, Kyoto, Japan) consisted of an SCL-10A system controller, two LC-10AT pumps, a SIL-10A auto injector, and a SPD-10AVP UV detector. Chromatographic separation was achieved using a Kromasil ODS column (4.6 × 150 mm I.D., 5 μm particle size) at a flow rate of 1 mL/min and UV detection at 316 nm. The mobile phase consisted of 10 mM KH2PO4, pH 2.7 (A) and acetonitrile (B). The following gradient was applied at a flow rate of 1 mL/min: 0–4 min 80% A and 20% B, 4.1–8 min 50% A and 50% B, 8.1–12 min, 30% A and 70% B. All experiments were performed in two independent experiments in duplicate.
# A typical incubation mixture contained recombinant human UGTs, 5 mM MgCl2, 5 mM UDPGA, 50 μg/mg protein alamethicin, 50 mM Tris-HCl buffer (pH 7.4), and various probe substrates of UGTs in the absence or presence of different concentrations of inhibitors. […] The final concentration of DMSO in the incubation system was 1% (v/v). […]
# Inhibition data from experiments were graphically represented by Dixon plots. K i values were calculated by nonlinear regression using the equations for competitive inhibition (1), noncompetitive inhibition (2), or mixed inhibition (3), [22] […] The type of inhibition was determined from the enzyme inhibition models. Goodness of fit to kinetic and inhibition models was assessed from the F statistic, r ^2 values, parameter standard error estimates, and 95% confidence intervals. […]
# [1] = Calculation of possible maximum concentrations in blood; design: species or system human; details: calculated, after a single oral administration of Epimedium pubescens decoction
IC50 (UGT2B4) [µM],Possible maximum concentration in human blood [1],SMILES
> 100,~0.1 nM,COc1ccc(-c2oc3c(CC=C(C)C)c(O[C@@H]4O[C@H](CO)[C@@H](O)[C@H](O)[C@H]4O)cc(O)c3c(=O)c2O)cc1 [Icariside I]
> 100,~1.5 nM,COc1ccc(-c2oc3c(CC=C(C)C)c(O)cc(O)c3c(=O)c2O)cc1 [Icaritin]

SMILES,IC50 (UGT2B4) [µM],Possible maximum concentration in human blood [1]
COc1ccc(-c2oc3c(CC=C(C)C)c(O[C@@H]4O[C@H](CO)[C@@H](O)[C@H](O)[C@H]4O)cc(O)c3c(=O)c2O[C@@H]2O[C@@H](C)[C@H](O)[C@@H](O)[C@H]2O)cc1 [Icariin],> 100,about 1.3 nM
